In ChEMBL document CHEMBL4699590, “Discovery of SARxxxx92, a pan-PIM kinase inhibitor, efficacious in a KG1 tumor model” (Bioorg Med Chem Lett, 2020):
In brackets after ≈: the same amount, converted by molar mass.

What was measured:
[1] = Permeability in human Caco2/TC7 cells at 5 uM; type: ADME, cell-based; conditions: Caco-2, read-out: permeability
[2] = Inhibition of PIM in human KG-1 cells assessed as reduction in PS6 level; type: cell-based
[3] = tested on: KG-1; test: Cytotoxicity against human KG-1 cells assessed as reduction in cell viability; type: functional, cell-based
[4] = biological target: Serine/threonine-protein kinase pim-2 (Homo sapiens, UniProt Q9P1W9); test: Inhibition of PIM2 (unknown origin)
Sequence of Serine/threonine-protein kinase pim-2 (Q9P1W9 whole entry): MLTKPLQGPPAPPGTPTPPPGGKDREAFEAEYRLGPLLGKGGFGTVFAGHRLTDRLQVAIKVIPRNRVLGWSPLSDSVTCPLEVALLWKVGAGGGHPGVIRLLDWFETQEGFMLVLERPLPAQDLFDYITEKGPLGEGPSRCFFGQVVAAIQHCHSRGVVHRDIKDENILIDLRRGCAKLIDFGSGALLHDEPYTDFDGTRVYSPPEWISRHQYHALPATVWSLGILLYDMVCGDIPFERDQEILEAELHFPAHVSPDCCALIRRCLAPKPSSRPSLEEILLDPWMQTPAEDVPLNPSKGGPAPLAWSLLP

[5] = Toxicity in mouse xenografted with human KG-1 cells assessed as reduction in body weight at 50 to 150 mg/kg, po administered bid for 3 weeks; type: organism-based; design: scale not given: the % may be the effect or the level left; conditions: in vivo, 504 h, dose 50-150 mg/kg
[6] = Free tumor concentration in human KG-1 tumor bearing mouse at 25 mg/kg, po measured after 24 hrs; type: ADME, organism-based, Neoplasm; conditions: in vivo
[7] = Oral bioavailability in rat at 10 mg/kg; type: ADME, organism-based; conditions: in vivo
[8] = tested on: KG-1; test: Antitumor activity against human KG-1 tumor bearing mouse assessed as reduction BAD phosphorylation at 25 mg/kg, po measured after 24 hrs; type: functional; conditions: KG-1, po
[9] = Free plasma concentration in human KG-1 tumor bearing mouse at 25 mg/kg, po measured after 8 hrs; type: ADME, organism-based; conditions: in vivo
[10] = tested on: KG-1; test: Antitumor against human KG-1 cells xenografted in mouse assessed as tumor volume at 50 mg/kg, po administered BID for 3 weeks relative to control; type: functional
[11] = Clearance in rat at 3 mg/kg, iv; type: ADME, organism-based; conditions: in vivo
[12] = Thermodynamic solubility in pH 7.4 buffer; type: physicochemical; conditions: read-out: Therm_solubility
[13] = Volume of distribution at steady state in rat at 3 mg/kg, iv; type: ADME, organism-based; conditions: in vivo, read-out: Vdss
[14] = biological target: Voltage-gated inwardly rectifying potassium channel KCNH2 (Homo sapiens, UniProt Q12809); test: Inhibition of human ERG by patch clamp assay
Sequence of Voltage-gated inwardly rectifying potassium channel KCNH2 (Q12809 whole entry): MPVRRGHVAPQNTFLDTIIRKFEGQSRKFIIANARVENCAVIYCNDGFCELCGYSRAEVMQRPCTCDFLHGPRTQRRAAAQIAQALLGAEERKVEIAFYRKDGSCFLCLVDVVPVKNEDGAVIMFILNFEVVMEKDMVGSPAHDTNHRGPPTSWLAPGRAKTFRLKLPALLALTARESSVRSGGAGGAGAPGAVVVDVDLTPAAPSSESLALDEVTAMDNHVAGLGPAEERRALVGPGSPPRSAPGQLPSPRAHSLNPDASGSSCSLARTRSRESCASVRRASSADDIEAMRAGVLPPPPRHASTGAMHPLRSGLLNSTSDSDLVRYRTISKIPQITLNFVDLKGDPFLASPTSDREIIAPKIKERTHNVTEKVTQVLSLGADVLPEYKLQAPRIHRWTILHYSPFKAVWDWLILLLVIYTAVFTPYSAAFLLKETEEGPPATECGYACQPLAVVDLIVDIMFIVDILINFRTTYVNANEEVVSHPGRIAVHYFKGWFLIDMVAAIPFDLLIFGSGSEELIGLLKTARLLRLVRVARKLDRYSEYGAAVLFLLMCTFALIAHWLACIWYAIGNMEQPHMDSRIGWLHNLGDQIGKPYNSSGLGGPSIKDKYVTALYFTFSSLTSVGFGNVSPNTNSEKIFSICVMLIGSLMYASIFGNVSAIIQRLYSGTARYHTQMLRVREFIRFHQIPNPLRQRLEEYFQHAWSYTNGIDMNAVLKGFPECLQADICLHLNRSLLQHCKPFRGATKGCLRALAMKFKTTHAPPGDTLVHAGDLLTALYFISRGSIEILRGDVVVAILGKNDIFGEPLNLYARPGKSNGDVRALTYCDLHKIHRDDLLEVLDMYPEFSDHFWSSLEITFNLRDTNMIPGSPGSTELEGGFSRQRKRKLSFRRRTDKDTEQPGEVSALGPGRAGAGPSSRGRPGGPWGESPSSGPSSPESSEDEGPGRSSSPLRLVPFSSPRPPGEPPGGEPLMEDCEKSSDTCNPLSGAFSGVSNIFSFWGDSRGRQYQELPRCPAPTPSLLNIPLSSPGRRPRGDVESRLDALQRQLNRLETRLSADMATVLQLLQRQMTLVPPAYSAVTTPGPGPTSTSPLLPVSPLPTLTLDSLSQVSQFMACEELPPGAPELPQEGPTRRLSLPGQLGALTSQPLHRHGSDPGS

[15] = Unbound fraction in human KG-1 tumor bearing mouse plasma at 25 mg/kg, po; type: ADME, organism-based
[16] = Free tumor concentration in human KG-1 tumor bearing mouse at 25 mg/kg, po measured after 8 hrs; type: ADME, organism-based, Neoplasm; conditions: in vivo
[17] = tested on: KG-1; test: Antitumor activity against human KG-1 tumor bearing mouse assessed as reduction BAD phosphorylation at 25 mg/kg, po measured after 8 hrs; type: functional; conditions: KG-1, po
[18] = tested on: KG-1; test: Antitumor against human KG-1 cells xenografted in mouse assessed as tumor volume at 150 mg/kg, po administered BID for 3 weeks relative to control; type: functional
[19] = tested on: KG-1; test: Antitumor against human KG-1 cells xenografted in mouse assessed as tumor growth inhibition at 150 mg/kg, po administered BID for 3 weeks; type: functional; conditions: KG-1, po, 504 h, read-out: TGI
[20] = tested on: KG-1; test: Antitumor against human KG-1 cells xenografted in mouse assessed as tumor volume at 100 mg/kg, po administered BID for 3 weeks relative to control; type: functional
[21] = Free plasma concentration in human KG-1 tumor bearing mouse at 25 mg/kg, po measured after 24 hrs; type: ADME, organism-based; conditions: in vivo
[22] = Half life in rat at 3 mg/kg, iv; type: ADME, organism-based; conditions: in vivo
[23] = Cmax in rat at 3 mg/kg, iv; type: ADME, organism-based; design: route intravenous, dose 3 mg/kg; conditions: in vivo

Row | Structure (SMILES) | Papp at 5 µM [1] [×10⁻⁶ cm/s] | EC50 [2] [nM] | IC50 [4] [nM] | EC50 [3] [nM] | other results
1 | Cc1cn([C@H](C)[C@H]2CCNC[C@@H]2F)c2nc(C(N)=O)cc(Cl)c12 (racemic) | 7.1 | 52 | – | 51 | –
2 | Cc1cn([C@@H](C)[C@H]2CCNC[C@H]2F)c2nc(C(N)=O)cc(Cl)c12 (racemic) | 1.5 | 6 | – | 17 | –
3 | Cc1cn([C@H](C)[C@@]2(F)CCNC2)c2nc(C(N)=O)cc(Cl)c12 (stereo in doubt) | – | – | 1780 | 7230 | –
4 | Cc1cn([C@@H](C)[C@@]2(F)CCNC2)c2nc(C(N)=O)cc(Cl)c12 (stereo in doubt) | – | 876 | 160 | 808 | –

Further compounds by falling EC50 [2], results first:

Row | Papp at 5 µM [1] [×10⁻⁶ cm/s] | EC50 [2] [nM] | IC50 [4] [nM] | Structure (SMILES) | EC50 [3] [nM] | other results
5 | 1.8 | 2030 | 515 | Cc1cn([C@H](C)[C@]2(F)CCNC2)c2nc(C(N)=O)cc(Cl)c12 (stereo in doubt) | 9070 | IC50 [14]: 30000 nM
6 | 1.7 | 115 | – | Cc1cn([C@@H](C)[C@@H]2CCNC[C@@H]2F)c2nc(C(N)=O)cc(Cl)c12 (racemic) | 195 | –
7 | 2.3 | 71 | 6 | Cc1cn([C@@H](C)[C@]2(F)CCNC2)c2nc(C(N)=O)cc(Cl)c12 (stereo in doubt) | 61 | Activity [5]: > 15%; Drug uptake(free) [6]: 120 nM; bioavailability [7]: 59%; inhibition in vivo at 25 mg/kg [8]: 55%; Cp(f) [9]: 240 nM; T/C [10]: 56.1%; clearance [11]: 75 mL/min/kg; solubility thermodynamic [12]: 6.8 mM (≈ 2210 µg/mL); Vd [13]: 9.9 L/kg; IC50 [14]: 22000 nM; fraction unbound [15]: 0.055; Drug uptake(free) [16]: 720 nM; inhibition in vivo at 25 mg/kg [17]: 65%; T/C [18]: 13.1%; inhibition in vivo at 150 mg/kg [19]: 87%; T/C [20]: 50.7%; Cp(f) [21]: 54 nM; half-life [22]: 2.7 h; Cmax [23]: 174 ng/mL
8 | 12 | 24 | – | Cc1cn([C@H](C)[C@@H]2CCNC[C@H]2F)c2nc(C(N)=O)cc(Cl)c12 (racemic) | 20 | –
